Assay results taken from patent US20160129033A1, “COMBINATION OF RO5503781 AND CAPECITABINE FOR CANCER THERAPY” (HOFFMANN-LA ROCHE INC., priority 2013, published 2016).

Test system: LoVo cell line
Test: Tumor growth inhibition and survival (ILS) in mice implanted with LoVo cell line
Format: in vivo
Description: The LoVo cell line was selected for implantation in mice as it is a p53 wildtype cell line that lacks MDM2 amplification or overexpression and therefore is felt to be more reflective of clinical reality of the colorectal cancer patient population of interest.
The following treatment groups were used in the study
Efficacy data was graphically represented as the mean tumor volume±standard error of the mean (SEM). In addition, tumor volumes of treated groups were presented as percentages of tumor volumes of the control groups (% T/C), using the formula: 100×((T-T0)/(C-C0)), where T represented mean tumor volume of a treated group on a specific day during the experiment, T0 represented mean tumor volume of the same treated group on the first day of treatment; C represented mean tumor volume of a control group on the specific day during the experiment, and C0 represented mean tumor volume of the same treated group on the first day of treatment.
Tumor volume (in cubic millimeters) was calculated using the ellipsoid formula: (D×(d^2))/2, where “D” represents the large diameter of the tumor and “d” represents the small diameter. In some cases, tumor regression and/or percent change in tumor volume was calculated using the formula: ((T-T0)/T0)×100, where ‘T’ represents mean tumor volume of the treated group at a particular day, and ‘T0’ represents mean tumor volume of the same treated group at initiation of treatment.
Statistical analysis was determined by the rank sum test and One Way Anova and a post-hoc Bonferroni t-test (SigmaStat, version 2.0, Jandel Scientific, San Francisco, Calif., USA). Differences between groups were considered to be significant when the probability value (p) was ≦0.05.
For survival assessment, the percent of increased life space (ILS) was calculated as: 100×[(median survival day of treated group−median survival day of control group)/median survival day of control group]. Median survival was determined utilizing Kaplan Meier survival analysis. Survival in treated groups was statistically compared with the vehicle group and survival comparisons were done between groups using the log-rank test (Graph Pad Prism, La Jolla, Calif., USA). Differences between groups were considered significant when the probability value (p) was ≦0.05.

[1] = Capecitabine 200 mg/kg qd × 14 po
[2] = Capecitabine 400 mg/kg qd × 14 po

| Compound | % Increased Life Span (ILS) (Cpd. A 80 mg/kg qd × 5 po) [%] | Mean Tumor Volume (Cpd. A 80 mg/kg qd × 5 po) [cubic millimeters] | % Inhibition (EOS) (TGI) (Cpd. A 80 mg/kg qd × 5 po) [%] | % T/C (EOS) (Cpd. A 80 mg/kg qd × 5 po) [%] | % Increased Life Span (ILS) (Cpd. A 100 mg/kg qweekly×3 po) [%] | Mean Tumor Volume (Cpd. A 100 mg/kg qweekly×3 po) [cubic millimeters] | % Inhibition (EOS) (TGI) (Cpd. A 100 mg/kg qweekly×3 po) [%] | % T/C (EOS) (Cpd. A 100 mg/kg qweekly×3 po) [%] | % Increased Life Span (ILS) [1] [%] | Mean Tumor Volume [1] [cubic millimeters] | % Inhibition (EOS) (TGI) [1] [%] | % T/C (EOS) [1] [%] | % Increased Life Span (ILS) [2] [%] | Mean Tumor Volume [2] [cubic millimeters] | % Inhibition (EOS) (TGI) [2] [%] | % T/C (EOS) [2] [%] |
| --- | --- | --- | --- | --- | --- | --- | --- | --- | --- | --- | --- | --- | --- | --- | --- | --- |
| COc1cc(C(=O)O)ccc1NC(=O)[C@@H]1N[C@@H](CC(C)(C)C)[C@](C#N)(c2ccc(Cl)cc2F)[C@H]1c1cccc(Cl)c1F [Compound A, 4-{[(2R,3S,4R,5S)-4-(4-Chloro-2-fluoro-phenyl)-3-(3-chloro-2-fluoro-phenyl)-4-cyano-5-(2,2-dimethyl-propyl)-pyrrolidine-2-carbonyl]-amino}-3-methoxy-benzoic acid] | 23 | 130.39 | 62 | 38 | 17 | 130.11 | 55 | 45 |  |  |  |  |  |  |  |  |
| CCCCCOC(=O)Nc1nc(=O)n([C@@H]2O[C@H](C)[C@@H](O)[C@H]2O)cc1F [Capecitabine, 5′-deoxy-5-fluoro-N-[(pentyloxy)-carbonyl]-cytidine] |  |  |  |  |  |  |  |  | 40 | 130.14 | 72 | 28 | 49 | 130.66 | 88 | 12 |
